# Data taken from PMC10667816, “A Cell‐Penetrant Peptide Disrupting the Transcription Factor CP2c Complexes Induces Cancer‐Specific Synthetic Lethality” (Advanced Science, 2023).
# Where no end group is shown, it is not given here.
# Experiments:
# [1] = tested on: murine erythroleukemia (MEL) cells; experiment: Erythroid differentiation of MEL cells; type: cell-based; details: HMBA‐induced MEL cells, supplementation to the culture
# Protocol: Information of the cell lines is listed in Table S1 (Supporting Information), including their origin and culture conditions. All cell lines were cultured at 37 °C, 5% CO2 incubator. MDA‐MB‐231 (LM1), HepG2, Hep3B, and HCT116 cell lines were authenticated with short tandem repeat markers based on ATCC information. All cell lines tested negative for mycoplasma contamination. Transient downregulation of the gene of interest was conducted by siRNA transfection using Lipofectamine 2000 (Thermo Fisher, 11668019) according to the manufacturer's instructions. Information about siRNAs is provided in Table S2 (Supporting Information). Stable cell lines were established by transfecting cells using Effectene reagent (Qiagen, 301425), followed by selection of cell clones in the presence of 1 µg mL^−1 puromycin (Sigma–Aldrich, P8833). The establishment of cell lines was confirmed by WB or RT‐qPCR. For doxycycline‐inducible gene expression regulation, cell lines were incubated in the presence of 1 µg mL^−1 doxycycline (Sigma–Aldrich, D9891) for 2–3 days. To promote sphere formation of the cell lines, each well of the tissue culture dish was coated with 10% poly 2‐hydroxyethyl methacrylate (polyHEMA). An appropriate number of cells per well were seeded in serum‐free DMEM/F12 (HyClone, SH30023.01) supplemented with B27, 20 ng mL^−1 bFGF, and 20 ng mL^−1 EGF. For erythroid terminal differentiation experiments, differentiation was assessed by hemoglobin staining using a 0.2% (w/v) tetramethylbenzidine solution (Sigma–Aldrich, T0440) in 0.6% hydrogen peroxide, 3% acetic acid for 10 min in dark condition. Benzidine‐positive or negative cell numbers were counted under the inverted microscope BX50 (Olympus) at 200 × magnification. […] After each synchronization, cells were fixed at 4‐h intervals for 24 h with ACP52C treatment, and the cell cycle was analyzed by Propidium Iodide (PI) staining or intracellular protein was analyzed by immunofluorescence. […] This development period was repeated four times for one round, after which GI50 concentrations were re‐assessed in each resistant cell line. […]
# Hep3B = Hep3B CDX mouse model; type: in vivo
# Protocol: Animal experiments were conducted in accordance with ethical guidelines, and all protocols were approved by the Institutional Animal Care and Use Committee under Hanyang University (approval numbers, 2014‐0016A, 2018‐0049A, 2018‐0207A, and 2019‐0169A), Chung‐Ang University (approval number, 2015‐00022), Chungbuk University (approval number, CBNUA‐1072‐17‐02), and Konkuk University (approval number, KU17130). To establish xenograft mice models, Hep3B, A431, U343, and PC9 cells were subcutaneously injected into the flank of Balb/c nude mice. For the MDA‐MB‐231 (LM1) cell line, it was implanted into the mammary fat pad of immunodeficient mice (NPG mice). Once tumors were successfully established, the animals were randomly divided into a control (vehicle) group and an experimental (drug) group. When the tumor volume reached 100 cubic millimeters, either saline or an appropriate concentration of drugs was administrated into mice via tail vein every 3 or 5 days for appropriate duration. Tumor volume was calculated using the formula of length × width^2)/2. To generate an orthotopic liver cancer mice model, 75 mg kg^−1 (mpk) of DEN was intraperitoneally injected weekly for 3 weeks into C57BL/6 mice, followed by 100 mpk of DEN weekly for the subsequent 3 weeks. After 37 weeks of liver cancer induction, mice received either saline or an appropriate concentration of drugs via the tail vein every 5 days for the designated duration. The in vivo administration amount was determined based on the concentration of ACP52C confirmed at the cellular level, which was 2 µM. Assuming an average mouse weight of 30 grams and considering that ≈5.8% of body weight constitutes blood volume,^[ [49] ^] it was calculated that the blood concentration of ACP52C should be ten times the GI50 concentration in cell culture conditions. […] For ACP52C derivatives, the amount was adjusted to ensure a similar molar quantity of peptide injection, taking their molecular weights into account. For instance, in the case of ACP52CGK, ≈1.67 times the quantity was used compared to ACP52C to achieve an equivalent molar quantity. At the time of sacrifice, major organs and tumors were removed and weighed, and blood was extracted. For histological analysis, major organs and tumors of mice were immediately fixed in 10% formalin neutral buffer solution, dehydrated through a graded series of ethanol treatments, treated with xylene, paraffin embedded, and cut into 4 µm sections. Hematoxylin and eosin (H&E)‐stained tissue sections were analyzed and photographed, and the representative histological images were recorded. Liver nodules in the DEN orthotopic liver cancer model were estimated by measuring the ratio of tumor areas over entire liver tissues in the tissue section using an Image J (version 1.51) software at 40× magnification. Complete blood count (CBC) analysis was conducted using a Hematology analyzer (scil Vet ABC) from the extracted blood.
# CP2c = biological target: T1, CP2c (Mus musculus, UniProt Q9ERA0); experiment: DNA‐IP assay of CP2c DNA binding; type: biochemical; details: 0–3 µM peptide, concentration‐dependent
# T1 construct: extracts from iMEL cells (day 2); endogenous in cells; host or cells: nuclear extract of HMBA-induced MEL (iMEL) cells, day 2
# T1 sequence (Q9ERA0 whole entry): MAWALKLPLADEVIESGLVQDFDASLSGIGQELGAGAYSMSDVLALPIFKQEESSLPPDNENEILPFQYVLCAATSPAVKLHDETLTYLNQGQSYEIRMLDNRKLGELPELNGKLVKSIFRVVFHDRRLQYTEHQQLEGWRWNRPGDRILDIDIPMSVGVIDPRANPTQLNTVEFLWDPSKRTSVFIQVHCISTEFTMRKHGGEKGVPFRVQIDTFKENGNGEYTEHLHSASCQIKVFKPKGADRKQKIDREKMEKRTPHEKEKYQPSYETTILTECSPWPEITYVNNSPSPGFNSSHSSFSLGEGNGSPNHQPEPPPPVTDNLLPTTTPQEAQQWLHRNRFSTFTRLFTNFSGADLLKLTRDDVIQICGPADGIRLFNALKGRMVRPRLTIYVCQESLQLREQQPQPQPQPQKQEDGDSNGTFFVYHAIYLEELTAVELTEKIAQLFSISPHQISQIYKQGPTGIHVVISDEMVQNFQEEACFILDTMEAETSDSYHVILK
# Protocol: DNA‐IP assay was performed essentially as described previously.^[ [14] ^] Each of the oligonucleotides was mixed and annealed in the TEN buffer. For the radio‐labeling of the DNA probe, the annealed DNA was incubated with a mixture of dATP, dGTP, dTTP, [α^32P]‐dCTP, and Klenow enzyme in reaction buffer (5 mM NaCl, 1 mM Tris HCl, 1 mM MgCl2, and 0.1 mM DTT) for 30 min at 25 °C, and stopped by incubation with EDTA (10 mM final) for 20 min at 75 °C. The radio‐labeled DNA probe was purified by applying the reaction mixture to ProbeQuant G‐50 micro columns (GE healthcare, GE28‐9034‐08). Whole extracts prepared from transfecting 293T cells or purified GST fused CP2c proteins (wildtype and point mutants) were incubated with a [α^32P]‐labeled DNA probe in binding buffer (4% glycerol, 10 mM Tris‐HCl, pH 7.4, 1 mM DTT, 1 mM EDTA, and 0.1% NP‐40) for 15 min at room temperature. Then 0–3 µM of peptides (Pep #5, Pep #8, Pep #5‐1, Pep #5‐2, and Pep #5‐2C) were added to the DNA‐protein mixture, and the mixtures were incubated for 15 min at room temperature (peptide sequences are listed in Table S3, Supporting Information). For IP, precleared extracts were incubated overnight at 4 °C with 1 µg of the following primary antibodies (CP2c, CP2b, and PIAS1). […] The radioactivity of the eluted probe was measured by scintillation counting.
# [2] = intravenous injection at three‐day intervals, Sorafenib orally once daily as positive control
Substance,anti‐tumor activity (Hep3B; [2]),other results
Ac-HERRESNYPQRPCRGDKGPDC-NH2 [Pep #5C],,inhibition of erythroid differentiation [1]: efficiently inhibited erythroid differentiation
"Ac-K(E-pal)K-GGNYPQRPCRGDKGPDC-NH2 [ACP52CG, palmitic acid linked to lysine at the N‐terminus of ACP52C]","decrease in anti‐tumor activity, resembling Sorafenib",
"Ac-K(EGFLG-pal)K-GGNYPQRPCRGDKGPDC-NH2 [ACP52CK, ACP52C with enzyme‐cleavable linker GFLG to palmitic acid]",activity similar to that of Sorafenib,
"Ac-NYPQRPGG-K(E-pal)-GGCRGDKGPDC-NH2 [ACP52GK, E‐pal attached via αE COO‐ to lysine between ACP52 and iRGD]",lower anti‐tumor activity compared to ACP52C,
"DHA-GGNYPQRPCRGDKGPDC-NH2 [DHA‐ACP52C, DHA, an unsaturated fatty acid, conjugated at the N‐terminus of ACP52C]",effectively demonstrated anti‐tumor activity,anti‐tumor activity (Hep3B; administered at five‐day intervals): noticeably higher activity than ACP52C
HERRES [Pep #5‐1],,inhibition of DNA binding activity of CP2c (CP2c): no activity
